Source: US20170362228A1, “TETRAHYDRO-PYRIDO[3,4-b]INDOLE ESTROGEN RECEPTOR MODULATORS AND USES THEREOF” (Genentech, Inc., priority 2016, published 2017)
Where two headings read alike, the source gives them in different places.

Key:
immature rat uterus = assay: Immature Uterine Wet Weight Assay, agonist mode (Example 906); type: in vivo; details: dosed PO, QD×3
Protocol: Female immature CD-IGS rats (21 days old upon arrival) are treated for three days. Animals are dosed daily for three days. For Antagonist Mode, Vehicle or test compound is administered orally by gavage followed 15 minutes later by an oral dose of 0.1 mg/kg Ethynyl Estradiol. For Agonist Mode, Vehicle or test compound is administered orally by gavage. On the fourth day 24 hours after dose, plasma is collected for pharmacokinetic analysis. Immediately following plasma collection, the animals are euthanized and the uterus removed and weighed.
Uteri and ovaries from 2 animals per group are fixed in 10% neutral buffered formalin and paraffin embedded, sectioned and stained for H&E (SDPath). Stained tissues are analyzed and read by a board certified pathologist. […]
Mice were treated with Formula I compounds (1R,3R)-1-(2,6-difluoro-4-((1-(3-fluoropropyl)azetidin-3-yl)oxy)phenyl)-2-(2-fluoro-2-methylpropyl)-3-methyl-2,3,4,9-tetrahydro-1H-pyrido[3,4-b]indole 101 and (1R,3R)-1-(2,6-difluoro-4-(2-(3-(fluoromethyl)azetidin-1-yl)ethoxy)phenyl)-2-(2-fluoro-2-methylpropyl)-3-methyl-2,3,4,9-tetrahydro-1H-pyrido[3,4-b]indole 102, tamoxifen, fulvestrant, AZD9496 (WO 2014/191726, Example 1, page 74; U.S. Pat. No. 9,155,727), and two controls: Vehicle and Vehicle plus ethynyl estradiol (EE). […] Uterine Wet Weight (UWW): Body Weight ratios were calculated. […]

MCF7 cells = assay: In vitro cell proliferation assays (Examples 902 and 903), MCF7; type: cell-based; details: read-out: ER-alpha MCF7 HCS (EC50)
[1] = molecular target: T1, estrogen receptor alpha (ESR1) (Homo sapiens, UniProt P03372); assay: Breast Cancer Cell ERa High Content Fluorescence Imaging Degradation Assay (Example 901); type: cell-based; details: Table 1b; MCF7 breast cancer cells, 4 hours; plateau of the maximal effect
T1 construct: endogenous in cells; host or cells: MCF7 breast cancer cells
T1 sequence (P03372 1-595): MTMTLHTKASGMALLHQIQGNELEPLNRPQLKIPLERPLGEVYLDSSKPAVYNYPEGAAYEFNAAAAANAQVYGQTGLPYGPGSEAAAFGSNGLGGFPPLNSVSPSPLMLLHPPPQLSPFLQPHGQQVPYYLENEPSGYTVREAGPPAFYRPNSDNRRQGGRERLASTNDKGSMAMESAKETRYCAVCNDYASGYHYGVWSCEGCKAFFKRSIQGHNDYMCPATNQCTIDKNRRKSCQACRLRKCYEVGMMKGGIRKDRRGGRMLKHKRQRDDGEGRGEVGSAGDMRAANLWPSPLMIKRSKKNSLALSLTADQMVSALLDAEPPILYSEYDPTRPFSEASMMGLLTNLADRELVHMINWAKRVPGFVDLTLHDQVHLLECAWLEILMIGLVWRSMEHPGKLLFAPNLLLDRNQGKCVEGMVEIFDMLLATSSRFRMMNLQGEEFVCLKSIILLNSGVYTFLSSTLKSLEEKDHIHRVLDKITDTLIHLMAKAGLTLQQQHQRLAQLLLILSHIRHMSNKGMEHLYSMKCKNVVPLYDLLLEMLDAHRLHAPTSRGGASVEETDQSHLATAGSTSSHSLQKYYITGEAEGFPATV
Outline: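 MCF7 cells in phenol red-free RPMI with 10% charcoal-stripped FBS, exposed to compound at 0.05–835 nM (10-point, 1.8×, duplicate; 0.84% DMSO) for 4 h at 37 °C. Fixed cells immunostained for ESR1 (F10 mAb, Alexa 488) with Hoechst nuclear mask; nuclear ESR1 intensity imaged per cell. DMSO and 5 nM fulvestrant set 0%/100%; EC50 and Sinf by robust fit.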

Row | SMILES | EC50 (MCF7 cells; Homo sapiens, MCF7, Table 1b) [nM] | ER-alpha MCF7 HCS (S inf) [1] [%] | EC50 (MCF7 cells; Table 1b) [nM] | activity in agonist mode UWW assay (immature rat uterus)
1 | C[C@@H]1Cc2c([nH]c3ccccc23)[C@@H](c2c(F)cc(/C=C/C(=O)O)cc2F)N1CC(C)(C)F [AZD9496] | – | – | – | partial agonist
2 | C[C@@H]1Cc2c([nH]c3ccccc23)[C@@H](c2c(F)cc([C@](C)(O)C3CN(CCCF)C3)cc2F)N1CC(F)(F)CO [Compound 155, 3-((1R,3R)-1-(2,6-difluoro-4-((R)-1-(1-(3-fluoropropyl)azetidin-3-yl)-1-hydroxyethyl)phenyl)-3-methyl-3,4-dihydro-1H-pyrido[3,4-b]indol-2(9H)-yl)-2,2-difluoropropan-1-ol] | 0.74 | −84 | – | –
3 | C[C@@H]1Cc2c([nH]c3ccccc23)[C@@H](c2c(F)cc([C@@H](F)C3CN(CCCF)C3)cc2F)N1C[C@H](F)CO [Compound 159, (S)-3-((1R,3R)-1-(2,6-difluoro-4-((S)-fluoro(1-(3-fluoropropyl)azetidin-3-yl)methyl)phenyl)-3-methyl-3,4-dihydro-1H-pyrido[3,4-b]indol-2(9H)-yl)-2-fluoropropan-1-ol] | 0.081 | −99 | – | –
4 | C[C@@H]1Cc2c([nH]c3ccccc23)[C@@H](c2c(F)cc([C@H](O)C3CN(CCCF)C3)cc2F)N1C[C@@H](F)CF [Compound 161] | 0.13 | −97 | – | –
5 | C[C@@H]1Cc2c([nH]c3ccccc23)[C@@H](c2c(F)cc(CC3CN(CCCF)C3)cc2F)N1C[C@H](F)CO [Compound 166, (S)-3-((1R,3R)-1-(2,6-difluoro-4-((1-(3-fluoropropyl)azetidin-3-yl)methyl)phenyl)-3-methyl-3,4-dihydro-1H-pyrido[3,4-b]indol-2(9H)-yl)-2-fluoropropan-1-ol] | 0.04 | −99 | – | –
6 | CO[C@@H](c1cc(F)c([C@@H]2c3[nH]c4ccccc4c3C[C@@H](C)N2CC(F)(F)CO)c(F)c1)C1CN(CCCF)C1 [Compound 169, 3-((1R,3R)-1-(2,6-Difluoro-4-((R)-(1-(3-fluoropropyl)azetidin-3-yl)(methoxy)methyl)phenyl)-3-methyl-3,4-dihydro-1H-pyrido[3,4-b]indol-2(9H)-yl)-2,2-difluoropropan-1-ol] | 0.108 | −89 | – | –
7 | CO[C@H](c1cc(F)c([C@@H]2c3[nH]c4ccccc4c3C[C@@H](C)N2CC(F)(F)CO)c(F)c1)C1CN(CCCF)C1 [Compound 170, 3-((1R,3R)-1-(2,6-Difluoro-4-((S)-(1-(3-fluoropropyl)azetidin-3-yl)(methoxy)methyl)phenyl)-3-methyl-3,4-dihydro-1H-pyrido[3,4-b]indol-2(9H)-yl)-2,2-difluoropropan-1-ol] | 0.078 | −94 | – | –
8 | C[C@@H]1Cc2c([nH]c3ccccc23)[C@@H](c2ccc([C@H](O)C3CN(CCCF)C3)c(F)c2)N1CC(F)(F)CO [Compound 171, 2,2-difluoro-3-((1R,3R)-1-(3-fluoro-4-((R)-(1-(3-fluoropropyl)azetidin-3-yl)(hydroxy)methyl)phenyl)-3-methyl-1,3,4,9-tetrahydro-2H-pyrido[3,4-b]indol-2-yl)propan-1-ol] | 0.087 | −93 | – | –

Further lines, with some results ahead:

Row | EC50 (MCF7 cells; Homo sapiens, MCF7, Table 1b) [nM] | ER-alpha MCF7 HCS (S inf) [1] [%] | EC50 (MCF7 cells; Table 1b) [nM] | SMILES | activity in agonist mode UWW assay (immature rat uterus)
9 | 0.4 | −101 | – | C[C@@H]1Cc2c([nH]c3ccccc23)[C@@H](c2c(F)cc([C@H](F)C3CN(CCCF)C3)cc2F)N1C[C@H](F)CO [Compound 158, (S)-3-((1R,3R)-1-(2,6-difluoro-4-((R)-fluoro(1-(3-fluoropropyl)azetidin-3-yl)methyl)phenyl)-3-methyl-3,4-dihydro-1H-pyrido[3,4-b]indol-2(9H)-yl)-2-fluoropropan-1-ol] | –
10 | – | −100 | 0.07 | C[C@@H]1Cc2c([nH]c3ccccc23)[C@@H](c2c(F)cc([C@@H](O)C3CN(CCCF)C3)cc2F)N1C[C@H](F)CF [Compound 162, (S)-(4-((1R,3R)-2-((S)-2,3-difluoropropyl)-3-methyl-2,3,4,9-tetrahydro-1H-pyrido[3,4-b]indol-1-yl)-3,5-difluorophenyl)(1-(3-fluoropropyl)azetidin-3-yl)methanol] | –
11 | 0.2 | −102 | – | C[C@@H]1Cc2c([nH]c3ccccc23)[C@@H](c2c(F)cc([C@H](O)C3CN(CCCF)C3)cc2F)N1C[C@H](F)CF [Compound 163] | –
12 | 0.38 | −85 | – | CO[C@@H](c1cc(F)c([C@@H]2c3[nH]c4ccc(F)cc4c3C[C@@H](C)N2CC(F)(F)CO)c(F)c1)C1CN(CCCF)C1 [Compound 164, 3-((1R,3R)-1-(2,6-difluoro-4-((R)-(1-(3-fluoropropyl)azetidin-3-yl)(methoxy)methyl)phenyl)-6-fluoro-3-methyl-3,4-dihydro-1H-pyrido[3,4-b]indol-2(9H)-yl)-2,2-difluoropropan-1-ol] | –
13 | 0.17 | −92 | – | CO[C@H](c1cc(F)c([C@@H]2c3[nH]c4ccc(F)cc4c3C[C@@H](C)N2CC(F)(F)CO)c(F)c1)C1CN(CCCF)C1 [Compound 165, 3-((1R,3R)-1-(2,6-difluoro-4-((S)-(1-(3-fluoropropyl)azetidin-3-yl)(methoxy)methyl)phenyl)-6-fluoro-3-methyl-3,4-dihydro-1H-pyrido[3,4-b]indol-2(9H)-yl)-2,2-difluoropropan-1-ol] | –
14 | 0.051 | −101 | – | C[C@@H]1Cc2c([nH]c3ccccc23)[C@@H](c2ccc([C@@H](O)C3CN(CCCF)C3)c(F)c2)N1CC(F)(F)CO [Compound 172, 2,2-difluoro-3-((1R,3R)-1-(3-fluoro-4-((S)-(1-(3-fluoropropyl)azetidin-3-yl)(hydroxy)methyl)phenyl)-3-methyl-1,3,4,9-tetrahydro-2H-pyrido[3,4-b]indol-2-yl)propan-1-ol] | –
15 | 0.072 | −100 | – | C[C@@H]1Cc2c([nH]c3ccccc23)[C@@H](c2ccc([C@H](O)C3CN(CCCF)C3)c(F)c2F)N1CC(F)(F)CO [Compound 173, 3-((1R,3R)-1-(2,3-difluoro-4-((R)-(1-(3-fluoropropyl)azetidin-3-yl)(hydroxy)methyl)phenyl)-3-methyl-1,3,4,9-tetrahydro-2H-pyrido[3,4-b]indol-2-yl)-2,2-difluoropropan-1-ol] | –
16 | 0.071 | −97 | – | C[C@@H]1Cc2c([nH]c3ccccc23)[C@@H](c2ccc([C@@H](O)C3CN(CCCF)C3)c(F)c2F)N1CC(F)(F)CO [Compound 174, 3-((1R,3R)-1-(2,3-difluoro-4-((S)-(1-(3-fluoropropyl)azetidin-3-yl)(hydroxy)methyl)phenyl)-3-methyl-1,3,4,9-tetrahydro-2H-pyrido[3,4-b]indol-2-yl)-2,2-difluoropropan-1-ol] | –
17 | 0.63 | −96 | – | COc1cc([C@@H]2c3[nH]c4ccccc4c3C[C@@H](C)N2CC(F)(F)CO)ccc1[C@H](O)C1CN(CCCF)C1 [Compound 175, 2,2-difluoro-3-((1R,3R)-1-(4-((R)-(1-(3-fluoropropyl)azetidin-3-yl)(hydroxy)methyl)-3-methoxyphenyl)-3-methyl-1,3,4,9-tetrahydro-2H-pyrido[3,4-b]indol-2-yl)propan-1-ol] | –
18 | 5.8 | −81 | – | COc1cc([C@@H]2c3[nH]c4ccccc4c3C[C@@H](C)N2CC(F)(F)CO)ccc1[C@@H](O)C1CN(CCCF)C1 [Compound 176, 2,2-difluoro-3-((1R,3R)-1-(4-((S)-(1-(3-fluoropropyl)azetidin-3-yl)(hydroxy)methyl)-3-methoxyphenyl)-3-methyl-1,3,4,9-tetrahydro-2H-pyrido[3,4-b]indol-2-yl)propan-1-ol] | –
